From article PMC11945236 (Molecules, 2025)

Assays:
[1] = target: SARS-CoV-2 M^pro (Severe acute respiratory syndrome coronavirus 2, UniProt P0DTD1); assay: biochemical; settings: for inhibition at 10 µM: read-out: Enzymatic Inhibition Rate (%), primary screening, 10 μM, incubation for 5 min
[2] = tested on: SARS-CoV-2 N proteins in Vero E6 cells; assay: Immunofluorescence assay for viral N proteins in infected Vero E6 cells; type: cell-based; settings: 10 μM, 48 h
Protocol: Human Vero E6 cells were infected by live SARS-CoV-2 at an MOI value of 0.01. […] Then, cells in each group were collected and the immunofluorescence assay was used to detect the expression of viral N protein, and the result was analyzed by high-content screening.

[3] = MTT cytotoxicity assay, Vero E6 cells; type: cell-based; settings: African green monkey
Protocol: (§1) The human HFF-1 and monkey Vero E6 cells were provided by Cell Bank in Shanghai, Chinese Academy of Sciences. HFF-1 cells were cultured in DMEM complete medium containing 15% FBS, 100 U/mL penicillin, and 100 μg/mL of streptomycin, while Vero E6 cells were maintained in DMEM complete medium containing 10% FBS. They were maintained at 37 °C in a humidified atmosphere with 5% CO2 (V/V).
(§2) The in vitro cytotoxicity of compounds was determined by the standard MTT assay according to our reported procedure. Briefly, well-cultured cells were seeded in 96-well plates at a density of 5 × 10^3 cells per well. After being cultured overnight in a 37 °C humidified incubator (5% CO2, V/V), cells were incubated with tested compounds for 48 h. Then, cells in each well were treated with MTT in PBS (5 mg/mL) for 4 h at 37 °C, and formazan crystals in viable cells were dissolved by dimethyl sulfoxide (150 μL) at ambient temperature. The absorbance of solubilized formazan was measured by the Synergy multimode reader (BioTek, Winooski, VT, American) at the wavelength of 490 nm.

[4] = experimental value; cited from earlier work
[5] = MTT cytotoxicity assay, HFF-1 cells; type: cell-based; settings: human
Protocol: as §1, §2

[6] = tested on: adenovirus; settings: concentrations from 0.0156 μM to 1 μM; cited from earlier work

COc1cc([C@@H](CC=C(C)C)OCCC(C)C)c(OC)c2c1/C(=N/O)C=C/C2=N\O [Compound 14, (1E,4E)-6-((R)-1-(Isopentyloxy)-4-methylpent-3-en-1-yl)-5,8-dimethoxy Naphthalene-1,4-dione Dioxime]
IC50 [1]: 22.8 ± 4.61 µM

COc1cc([C@H](CC=C(C)C)OCCC(C)C)c(OC)c2c1/C(=N/O)C=C/C2=N\O [Compound 15, (1E,4E)-6-((S)-1-(Isopentyloxy)-4-methylpent-3-en-1-yl)-5,8-dimethoxy Naphthalene-1,4-dione Dioxime]
IC50 [1]: 12.5 ± 3.59 µM

CC(C)=CC[C@@H](O)C1=CC(=O)c2c(O)ccc(O)c2C1=O [Shikonin]
inhibition at 10 µM [1]: 51.4%
blue fluorescence (DAPI) from the live cell nucleus [2]: almost invisible
expression of viral N proteins versus untreated cells ([2]; MOI 0.01): significantly decreased expression of viral N proteins
CC50 at 48 h [3]: 1.48 ± 0.06 µM
LogP [4]: 1.08
CC50 at 48 h [5]: 1.31 ± 0.09 µM
inhibitory effects against adenovirus [6]: showed inhibitory effects against adenovirus

COc1cc(C(CC=C(C)C)OC(=O)C=Cc2ccccc2)c(OC)c2c1/C(=N/O)C=C/C2=N\O (stereo not shown) [Compound 12, 1-((5E,8E)-5,8-bis(Hydroxyimino)-1,4-dimethoxy-5,8-dihydronaphthalen-2-yl)-4-methylpent-3-en-1-yl Cinnamate]
inhibition at 10 µM [1]: 28%

COc1cc(C(CC=C(C)C)OCCC(C)C)c(OC)c2c1/C(=N/OC(=O)c1ccccc1)C=C/C2=N\OC(=O)c1ccccc1 (stereo not shown) [Compound 6, (1E,4E)-6-(1-(Isopentyloxy)-4-methylpent-3-en-1-yl)-5,8-dimethoxynaphthalene-1,4-dione O,O-Dibenzoyl Dioxime]
Enzymatic Inhibition Rate (%) ([1]; primary screening, 10 μM, incubation for 5 min): complete loss of activity
inhibition at 10 µM [1]: -6.9%

COc1cc(C(CC=C(C)C)OCCC(C)C)c(OC)c2c1C(=O)C=CC2=O (stereo not shown) [Compound 4, 6-(1-(Isopentyloxy)-4-methylpent-3-en-1-yl)-5,8-dimethoxy Naphthalene-1,4-dione]
inhibition at 10 µM [1]: 10.6%

COc1cc(C(CC=C(C)C)OCCCCC(C)O)c(OC)c2c1/C(=N/O)C=C/C2=N\O (stereo not shown) [Compound 9, (1E,4E)-6-(1-((5-Hydroxyhexyl)oxy)-4-methylpent-3-en-1-yl)-5,8-dimethoxy Naphthalene-1,4-dione Dioxime]
inhibition at 10 µM [1]: 10.7%

COc1cc(C(CC=C(C)C)OCCCCCCCCO)c(OC)c2c1/C(=N/O)C=C/C2=N\O (stereo not shown) [Compound 10, (1E,4E)-6-(1-((8-Hydroxyoctyl)oxy)-4-methylpent-3-en-1-yl)-5,8-dimethoxy Naphthalene-1,4-dione Dioxime]
inhibition at 10 µM [1]: 11.3%

COc1cc(C(CC=C(C)C)OCCC(C)C)c(OC)c2c1/C(=N/O)C=C/C2=N\O (stereo not shown) [Compound 5, (1E,4E)-6-(1-(Isopentyloxy)-4-methylpent-3-en-1-yl)-5,8-dimethoxynaphthal-ene-1,4-dione Dioxime]
inhibition at 10 µM [1]: ~36%
